2 compounds from EP1551873B1, “AGONISTS AND ANTAGONISTS OF THE HUMAN ODORANT RECEPTOR OR17-4 AND USES THEREOF” (Symrise AG, priority 2002, dated 2004) can be followed below.

Assay [1] relates to humane Spermien. In words: Sperm activation bioassay: swimming speed by computer-assisted video motion analysis (CAVMA). The assay is classed as cell-based, human. As to the method: (§1) Gefrorene Samenproben von fünf gesunden Spendern wurden aus der California Cryobank (Los Angeles, CA, USA) erhalten und für Bioassays gemäß den World Health Organization-Richtlinien (World Health Organization: Laboratory for the examination of human serum and semen-cervical mucus interaction, Cambridge University Press (1993)) vorbereitet. Nachdem die Suspensionen auf 37 °C für 10 Minuten gebracht worden waren, wurde jede Probe in HEPES-gepufferter humaner Tubarflüssigkeit (HTF; Irvine Scientific, Santa Ana, CA, USA) überführt und auf 10^7 Zellen/ml eingestellt. Die Lösungen wurden dann bei 37 °C in einer 5 %-igen CO2-Atmosphäre aufbewahrt und innerhalb von 30 Minuten für Experimente verwendet (P. Quinn, Journal of Assisted Reproductive Genetics 12, 97-105 (1995)). Die Reaktionen von Sperma auf Bourgeonal wurde (a) durch computer-assisted video motion analysis (CAVMA) gemessen, um Veränderungen in der Schwimmgeschwindigkeit (Spermaaktivierung) zu detektieren, und (b) in einem flat capillary-Assay für die Chemotaxis in der Nähe einer Diffusionsmaterialquelle untersucht. Für jede Test-oder Kontroll-Behandlung wurden fünf wiederholte Experimente unter Verwendung von Sperma der fünf Spender durchgeführt. Die Daten der Bioassays wurden statistisch durch Ein-Weg-Varianzanalyse (ANOVA) unter Verwendung eines post-hoc Scheffe-Tests (R. W. Day and G. P. Quinn, Ecol. Monogr. 59, 433-463 (1989)) analysiert. Eine Bonferroni-Korrektur wurde zum Angleichen der α-Levels für multiple Vergleiche verwendet.
Zur Untersuchung der Spermien-Aktivierung wurden Bioassays für die Schwimmgeschwindigkeit bei 37 °C durchgeführt. Spermien wurden sanft einer Kontroll- oder Testlösung einheitlicher Konzentration zugefügt. Die Bilder von Spermien (3,0 x 10^3 Zellen/ml) wurden dann unter Verwendung einer Videokamera (NEC Modell TI 23A), die auf einem Olympus IX70-Lichtmikroskop montiert war, bei 90-facher Vergrößerung aufgenommen. Um mögliche Artefakte durch Reibungskräfte zu minimieren, besaß die Kamera eine 100 µm Feldtiefe und fokussierte auf eine Region, die annäherend 2 mm von der nächsten Oberfläche entfernt war. Videobilder von Spermien wurden mit 30 Bildern/Sekunde digitalisiert und über 10-Sekundenintervalle unter Verwendung eines CAVMA-Systemes (Motion Analysis Corporation, Modell VP 320, Expert Vision und Benutzter-Software), verbunden mit einer Sun SPARC 2 Computer-Arbeitsstation bearbeitet (J. A. Riffell, P. J. Krug, R. K. Zimmer, Journal of Experimental Biology 205, 1439-1450 (2002)). Die Schwimmgeschwindigkeit wurde auf einer Bild-zu-Bild-Basis bestimmt und danach über jeden einzelnen zurückgelegten Weg gemittelt. Um zu vermeiden, sich horizontal anstatt vertikal bewegende Zellen zu messen, wurden kurze Wege mit weniger als 11 Bildern verworfen, bei denen sich die Spermien um mehr als 20 % in ihrer scheinbaren Größe veränderten.

For assay [2], the system named is humane Spermien. The experiment in a line: Sperm chemotaxis flat capillary assay (cell density in capillary). Format: cell-based, human. The procedure: as §1
Zur Untersuchung der Spermien-Chemotaxis wurden Kammern mit vier getrennten Kompartimenten verwendet, wobei die Kapillar-Methode von Adler (J. Adler, Science 153, 708-716 (1966); J. Adler, Journal of General Microbiology 74, 77-91 (1973)) modifiziert wurde. Jedes Kompartiment bestand aus zwei durch einen Kanal verbundenen Vertiefungen. Die Spermienproben (10^6 Zellen/ml) wurden jeweils in den Vertiefungen vorgelegt. Ein flaches 6 µl-Mikrokapillarröhrchen (Drummond Scientific Co.), das entweder Test- oder Kontrolllösung enthielt, wurde in den Kanal eingeführt, wobei seine beiden Enden die frischen Spermien-Suspensionen innerhalb der zwei Vertiefungen berührten. Nach vier Stunden Inkubation bei 37 °C wurden die Inhalte jeder Kapillare in die Vertiefung eines Toxoplasmose-Objektträgers transferiert, hitzefixiert und mit 0,1 Acridin-Orange 1 Minute lang gefärbt. Zellzählungen wurden dann unter Verwendung eines Olympus-BH2-Mikroskopes, das für Phasenkontrast- und Epifluoreszenz-Applikationen ausgerüstet war (J. A. Riffell, P. J. Krug, R. K. Zimmer, Journal of Experimental Biology 205, 1439-1450 (2002); C. C. Gee and R. K. Zimmer-Faust, Journal of Experimental Biology 200, 3185-3192 (1997)), bei 67-facher Vergrößerung durchgeführt.
Zur Bestimmung der Chemoattraktion von Spermien und des Effekts eines Antagonisten wurde Bourgeonal allein bei 10^-7 M und in Kombination mit 10^-6, 10^-7, 10^-8 oder 10^-9 M n-Undecanal getestet. Während der Durchführung der Chemotaxis-Bioassays wurde das Spermienverhalten innerhalb eines Bereiches von 300 µm vor jeder Kapillarspitze 30 Sekunden lang auf Video aufgenommen. Die Videoaufnahme begann 10 bis 15 Minuten nach dem Experimentbeginn, um die Bildung eines chemischen Gradienten zu ermöglichen. Die Spermien-Orientierung zum Gradienten hin wurde unter Verwendung von CAVMA quantifiziert. […]

Another assay has as its target T1, hOR17-40 (Homo sapiens, UniProt P47881).
T1 construct: pOR17-40 (Ausschnitt) mit der vollständigen cDNA von hOR17-40; expressed in transfected cells; host or cells: HEK293, plasmid pOR17-40
T1 sequence (P47881 1-315): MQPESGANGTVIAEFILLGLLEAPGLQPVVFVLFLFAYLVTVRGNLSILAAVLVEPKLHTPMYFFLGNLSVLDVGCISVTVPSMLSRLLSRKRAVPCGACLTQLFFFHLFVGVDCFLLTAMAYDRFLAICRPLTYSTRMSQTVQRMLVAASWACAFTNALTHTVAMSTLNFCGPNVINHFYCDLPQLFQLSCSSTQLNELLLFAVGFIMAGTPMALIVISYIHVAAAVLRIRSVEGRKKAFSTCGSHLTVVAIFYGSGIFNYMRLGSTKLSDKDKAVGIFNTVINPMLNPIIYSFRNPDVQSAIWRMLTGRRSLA
The experiment in a line: Ca2+ imaging of HEK293 cells transfected with pOR17-40. The assay is classed as cell-based.

The mark [3] stands for this setting: co-applied with 10^-6, 10^-7 or 10^-8 M n-Undecanal, P > 0,99.

Take `CCCCCCCCCCC=O` [n-Undecanal]: in the assay on humane Spermien [1] (10^-7 M alone, P > 0,99), the “Effekt auf das Spermienverhalten, Schwimmgeschwindigkeit” value is recorded as “keinen messbaren Effekt”. Further, in the assay on humane Spermien [1] (setting [3]), the “Schwimmgeschwindigkeit als Antwort auf 10^-7 M Bourgeonal relativ zur HTF-Kontrolle” value is recorded as “nicht signifikant erhöht”. The “Effekt auf das Spermienverhalten, Zelldichte” value in the assay with humane Spermien [2] (10^-7 M alone, P > 0,99) is recorded as “keinen messbaren Effekt”. Besides, the “Zelldichte als Antwort auf 10^-7 M Bourgeonal relativ zur HTF-Kontrolle” value with humane Spermien [2] (setting [3]) is “nicht signifikant erhöht”. Moreover, the “inhibitorischer Effekt auf das Helional-induzierte Antwortmuster” value against hOR17-40 (pre-incubation) is “keinen inhibitorischen Effekt”.

For `CC(C)(C)c1ccc(CCC=O)cc1` [Bourgeonal], the “Konzentration ohne weiteren Anstieg der Schwimmgeschwindigkeit” value with humane Spermien [1] is on record as > 10^-6 M. Besides, the EC50 with humane Spermien [1] (Homo sapiens, Sperm, 37 °C, read-out: ED50 (Konzentration, die die halbmaximale Antwort hervorruft), Schwimmgeschwindigkeit) came to 0.03 µM; in the assay on humane Spermien [2] (Homo sapiens, Sperm, 4 h, 37 °C, read-out: ED50 (Konzentration, die die halbmaximale Antwort hervorruft), Zelldichte), 0.03 µM. In addition, the “Konzentrationen mit signifikanten Antworten im Verhältnis zur HTF-Kontrolle, Schwimmgeschwindigkeit” value with humane Spermien [1] (Scheffé test P ≤ 0,03) is ≥ 10^-8 M. Moreover, the “Konzentration ohne weiteren Anstieg der Zelldichte” value in the assay on humane Spermien [2] is > 10^-6 M. Also, the “Konzentrationen mit signifikanten Antworten im Verhältnis zur HTF-Kontrolle, Zelldichte” value with humane Spermien [2] (Scheffé test P ≤ 0,03) is listed as ≥ 10^-8 M. Also, at hOR17-40, the “Ca^2+-Signale (hOR17-40)” value was “keine Ca^2+-Signale”.
